IC50 data for 39 compounds are collected here from US9643933B2, “Compounds useful as antibiotic tolerance inhibitors” (priority 2013, dated 2017).

This experiment deals with Pyocyanin. The experiment is described as follows: Pyocyanin Inhibition Assay. Type of experiment: cell-based, P. aeruginosa, strain PA14. To be noted: Pseudomonas aeruginosa, PA14, 24 h, read-out: Pyocyanin Inhibition No. IC50 (μM). On the procedure:
Test compounds are dissolved in DMSO at 10 mM and stored at −20° C. until needed. Seven test concentrations from 0.0032 micromolar to 31.6 micromolar are used for each compound.
P. aeruginosa, strain PA14, is inoculated into 5 mL of LB broth in a 15-mL sterile glass culture tube and incubated overnight at 37° C. under shaking (˜240 rpm). The overnight culture is then diluted in LB Broth to give an OD600=0.04 (T0 culture). Colony Forming Units (CFU)/mL of the overnight culture and T0 culture are determined by a series of 1:10 serial dilutions in sterile saline. 4×20 μL of each dilution is seeded on LB agar plates and incubated at 35±2° C. for 20 hours. CFU/mL is determined from the dilution that gives 2 to 50 colonies/20 μL.
For concentration response curve (CRC) experiments, internal standard, 2-((5-nitro-1H-indol-2-yl)thio)-N-(4-phenoxyphenyl)acetamide, a compound previously identified as an MvfR inhibitor (see Example 1 of US 2014-0066454 (WO 2012/116010)), and test compounds are serially diluted in DMSO to 200 times each final concentration (0.5% DMSO fmal), and 1 μL/well is dispensed in duplicate into 2 mL wells of a 96-well deep well plate. 200 μL/well of T0 culture are added to each internal standard/test compound well. Wells containing only T0 culture (200 200 μL/well) are used to determine pyocyanin control level and wells containing only LB broth (blank wells) are also included in the plate.
The plate is sealed and incubated at 37° C. under shaking (˜700 rpm) using a microtiter shaker for 24 hours. At the end of the incubation period, the plate is centrifuged at 4,000 g for 40 minutes at room temperature, 100 μL/well of the supernatant is transferred to a 96-microtiter PS flat-bottom plate, and absorbance at 690 nm is determined using SPECTROstar® Nano microplate reader. Pyocyanin concentration (M) is determined using the equation C=A690/(ε×d), where ε is the Pyocyanin extinction coefficient, at A690 nm ε is 4,310 M^−1 cm^−1 and d is the experimentally derived pathlength. The level of pyocyanin in the presence of test compound is expressed as percentage of inhibition with respect to the control. Curve fitting and IC50 determination were carried out using a four-parameter logistic model using GraphPad Prism v.5.

As for `O=C(CSc1nc2cc(C(=O)O)ccc2[nH]1)Nc1ccc(Cl)cc1` [Compound 97], the concentration for half-maximal inhibition (IC50) was above 10 µM.
For `CS(=O)(=O)c1ccc2[nH]c(SCC(=O)Nc3ccc(Cl)cc3)nc2c1` [Compound 98], the IC50 was above 10 µM.
Consider `NS(=O)(=O)c1ccc2[nH]c(SCC(=O)Nc3ccc(Cl)cc3)nc2c1` [Compound 99], for which the concentration for half-maximal inhibition (IC50) is above 10 µM.
Next, `O=C(CSc1nc2ccncc2[nH]1)Nc1ccc(Cl)cc1` [Compound 100]: above 10 µM.
Consider `O=C(CSc1nc2cccnc2[nH]1)Nc1ccc(Cl)cc1` [Compound 101], for which the IC50 is above 10 µM.
Next, `N#Cc1ccc(NC(=O)CSc2nc3cnccc3[nH]2)cc1` [Compound 102]: above 10 µM.
As for `N#Cc1ccc(NC(=O)CSc2nc3ncccc3[nH]2)cc1` [Compound 103], the figure is above 10 µM; as for `CS(=O)(=O)c1ccc2[nH]c(SCC(=O)Nc3ccc(C#N)cc3)nc2c1` [Compound 107], above 10 µM.
Next, `N#Cc1ccc(NC(=O)CSc2nc3cc(S(N)(=O)=O)ccc3[nH]2)cc1` [Compound 108]: above 10 µM; `COC(=O)c1ccc2[nH]c(SCC(=O)Nc3ccc(Cl)cc3)nc2c1` [Compound 109]: above 10 µM.
`O=C(CSc1nc2ccc(-c3ncccn3)cc2[nH]1)Nc1ccc(Cl)cc1` [Compound 114]: the IC50 was above 10 µM.
Next, `CNC(=O)c1ccc2[nH]c(SCC(=O)Nc3ccc(Cl)cc3)nc2c1` [Compound 115]: above 10 µM; `CN(C)C(=O)c1ccc2[nH]c(SCC(=O)Nc3ccc(Cl)cc3)nc2c1` [Compound 118]: above 10 µM.
For the compound `CN(C)C(=O)c1ccc2[nH]c(SCC(=O)Nc3ccc(C#N)cc3)nc2c1` [Compound 119], the half-maximal inhibitory concentration (IC50) is above 10 µM.
As for `Cc1ccc(NC(=O)C(C)Sc2nc3ccc(Cl)cc3[nH]2)cc1` (stereo not drawn) [Compound 120], the figure is above 10 µM.
Turning to `Cc1cccc(NC(=O)CSc2nc3cccnc3[nH]2)c1` [Compound 121], the IC50 was above 10 µM.
Regarding `O=C(CSc1nc2cccnc2[nH]1)Nc1ccccc1` [Compound 122], the concentration for half-maximal inhibition (IC50) was above 10 µM.
As for `CC(=O)Nc1cccc(NC(=O)CSc2nc3cc(C)ccc3[nH]2)c1` [Compound 123], the figure is above 10 µM.
As for `CC(=O)c1ccc(NC(=O)CSc2nc3ccc(C)cc3[nH]2)cc1` [Compound 124], the figure is above 10 µM.
As for `O=C(CSc1nc2ccc(-c3ncco3)cc2[nH]1)Nc1ccc(Cl)cc1` [Compound 127], the figure is above 10 µM; as for `N#Cc1ccc(NC(=O)CSc2nc3ccc(-c4ncco4)cc3[nH]2)cc1` [Compound 128], above 10 µM.
Consider `CNC(=O)c1ccc2[nH]c(SCC(=O)Nc3ccc(C#N)cc3)nc2c1` [Compound 129], for which the half-maximal inhibitory concentration (IC50) is above 10 µM.
As for `N#Cc1ccc(NC(=O)CSc2nc3cc(O)ccc3[nH]2)cc1` [Compound 130], the figure is above 10 µM; as for `O=C(CSc1nc2cc(O)ccc2[nH]1)Nc1ccc(Cl)cc1` [Compound 131], above 10 µM.
Consider `O=C(CSc1nc2ccncc2[nH]1)Nc1ccccc1F` [Compound 132], for which the IC50 was above 10 µM.
Next, `Cc1ccc(NC(=O)CSc2nc3cccnc3[nH]2)cc1` [Compound 133]: above 10 µM; `Cc1cc(Cl)ccc1NC(=O)CSc1nc2cc(C#N)ccc2[nH]1` [Compound 160, N-(4-chloro-2-methylphenyl)-2-((5-cyano-1H-benzo[d]imidazol-2-yl)thio)acetamide]: 1 to 10 µM; `COc1cc(Oc2cccnc2)ccc1NC(=O)CSc1nc2cc(Cl)ccc2[nH]1` [Compound 161, 2-((5-chloro-1H-benzo[d]imidazol-2-yl)thio)-N-(2-methoxy-4-(pyridin-3-yloxy)phenyl)acetamide]: below 0.1 µM.
Consider `O=C(CSc1nc2cc(Cl)ccc2[nH]1)Nc1ccc(Oc2cccnc2)cc1O` [Compound 162, 2-((5-Chloro-1H-benzo[d]imidazol-2-yl)thio)-N-(2-hydroxy-4-(pyridin-3-yloxy)phenyl)acetamide], for which the IC50 was below 0.1 µM.
For `Cc1cc(Oc2cccnc2)ccc1NC(=O)CSc1nc2cc(Cl)ccc2[nH]1` [Compound 163, 2-((5-Chloro-1H-benzo[d]imidazol-2-yl)thio)-N-(2-methyl-4-(pyridin-3-yloxy)phenyl)acetamide], the 50% inhibitory concentration (IC50) was 0.1 to 1 µM.
For `COc1cc(Cl)cc2nc(SCC(=O)Nc3ccc(Oc4cccnc4)cc3)[nH]c12` [Compound 164, 2-((5-chloro-7-methoxy-1H-benzo[d]imidazol-2-yl)thio)-N-(4-(pyridin-3-yloxy)phenyl)acetamide], the half-maximal inhibitory concentration (IC50) was below 0.1 µM.
As to `O=C(CSc1nc2cc(Cl)ccc2[nH]1)Nc1ccc(Oc2cccnc2)cc1Cl` [Compound 165, 2-((5-Chloro-1H-benzo[d]imidazol-2-yl)thio)-N-(2-chloro-4-(pyridin-3-yloxy)phenyl)acetamide], the half-inhibitory concentration (IC50) is below 0.1 µM.
As for `COc1cc(Cl)cc2nc(SCC(=O)Nc3ccc(Cl)cc3)[nH]c12` [Compound 166, 2-((5-Chloro-7-methoxy-1H-benzo[d]imidazol-2-yl)thio)-N-(4-chlorophenyl)acetamide], the figure is 0.1 to 1 µM.
Consider `N#Cc1ccc2[nH]c(SCC(=O)Nc3ccc(Cl)cc3Cl)nc2c1` [Compound 167, 2-((5-Cyano-1H-benzo[d]imidazol-2-yl)thio)-N-(2,4-dichlorophenyl)acetamide], for which the IC50 was 0.1 to 1 µM.
Next, `Cc1cc(Oc2cccnc2)ccc1NC(=O)CSc1nc2cc(C#N)ccc2[nH]1` [Compound 168, 2-((5-Cyano-1H-benzo[d]imidazol-2-yl)thio)-N-(2-methyl-4-(pyridin-3-yloxy)phenyl)acetamide]: 0.1 to 1 µM.
In the case of `COc1cc(Oc2cccnc2)ccc1NC(=O)CSc1nc2cc(C#N)ccc2[nH]1` [Compound 169, 2-((5-Cyano-1H-benzo[d]imidazol-2-yl)thio)-N-(2-methoxy-4-(pyridin-3-yloxy)phenyl)acetamide], the IC50 lay within 0.1 to 1 µM.
Take `N#Cc1ccc2[nH]c(SCC(=O)Nc3ccc(Oc4cccnc4)cc3Cl)nc2c1` [Compound 170, N-(2-chloro-4-(pyridin-3-yloxy)phenyl)-2-((5-cyano-1H-benzo[d]imidazol-2-yl)thio)acetamide]: the 50% inhibitory concentration (IC50) is below 0.1 µM.
As for `CC(C)(O)c1cc(Cl)cc2nc(SCC(=O)Nc3ccc(Oc4cccnc4)cc3)[nH]c12` [Compound 171, 2-((5-chloro-7-(2-hydroxypropan-2-yl)-1H-benzo[d]imidazol-2-yl)thio)-N-(4-(pyridin-3-yloxy)phenyl)acetamide], the figure is below 0.1 µM.
As for `O=C(C[C@H](O)c1nc2ccc(Cl)cc2[nH]1)Nc1ccc(Oc2cccnc2)cc1` [Compound 172, (S)-3-(6-chloro-1H-benzo[d]imidazol-2-yl)-3-hydroxy-N-(4-(pyridin-3-yloxy)phenyl)propanamide], the figure is 1 to 10 µM.
